Tests used:
[1] = biological target: Soluble acetylcholine receptor (Aplysia californica, UniProt Q8WSF8, Y55W); assay: Binding affinity to salt water mollusc Aplysia californica AChBP Y55W mutant assessed as [3H]acetamiprid binding by radioligand binding assay
[2] = biological target: Neuronal acetylcholine receptor subunit alpha-4 (Gallus gallus, UniProt P09482+P09484); assay: Binding affinity to recombinant Gallus gallus (chicken) alpha4beta2 nicotinic acetylcholine receptor assessed as [3H]NIC binding by radioligand binding assay
[3] = biological target: T1, Acetylcholine receptor subunit beta-like 2 (Drosophila melanogaster, UniProt P25162); assay: Binding affinity to Drosophila brain nicotinic acetylcholine receptor assessed as [3H]IMI binding by radioligand binding assay
T1 sequence (P25162 whole entry): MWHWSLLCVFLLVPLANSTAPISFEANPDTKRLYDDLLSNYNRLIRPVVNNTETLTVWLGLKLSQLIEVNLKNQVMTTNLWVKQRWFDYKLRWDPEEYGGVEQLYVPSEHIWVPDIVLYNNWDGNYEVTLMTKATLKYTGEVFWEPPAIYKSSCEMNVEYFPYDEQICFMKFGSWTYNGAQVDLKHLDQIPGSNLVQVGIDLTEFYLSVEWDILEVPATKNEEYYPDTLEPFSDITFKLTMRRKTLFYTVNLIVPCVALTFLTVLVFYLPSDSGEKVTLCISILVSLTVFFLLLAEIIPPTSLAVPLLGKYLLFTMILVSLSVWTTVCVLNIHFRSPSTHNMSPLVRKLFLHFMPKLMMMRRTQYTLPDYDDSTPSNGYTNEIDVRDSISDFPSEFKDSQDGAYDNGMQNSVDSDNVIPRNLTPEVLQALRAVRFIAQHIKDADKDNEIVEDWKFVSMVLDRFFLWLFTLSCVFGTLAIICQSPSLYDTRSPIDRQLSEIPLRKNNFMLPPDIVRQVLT

[4] = biological target: Acetylcholine-binding protein (Lymnaea stagnalis, UniProt P58154); assay: Binding affinity to freshwater snail Lymnaea stagnalis AChBP assessed as [3H]EPI binding by radioligand binding assay
Acetylcholine-binding protein, sequence (P58154 whole entry): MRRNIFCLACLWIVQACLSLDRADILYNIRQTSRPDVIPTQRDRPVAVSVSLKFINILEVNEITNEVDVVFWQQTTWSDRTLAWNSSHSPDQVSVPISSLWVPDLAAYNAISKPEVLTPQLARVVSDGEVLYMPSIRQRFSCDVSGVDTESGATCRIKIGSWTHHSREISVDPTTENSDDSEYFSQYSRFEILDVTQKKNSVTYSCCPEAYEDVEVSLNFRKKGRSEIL

Neuronal acetylcholine receptor subunit alpha-4, sequence (P09482 whole entry, one chain of several): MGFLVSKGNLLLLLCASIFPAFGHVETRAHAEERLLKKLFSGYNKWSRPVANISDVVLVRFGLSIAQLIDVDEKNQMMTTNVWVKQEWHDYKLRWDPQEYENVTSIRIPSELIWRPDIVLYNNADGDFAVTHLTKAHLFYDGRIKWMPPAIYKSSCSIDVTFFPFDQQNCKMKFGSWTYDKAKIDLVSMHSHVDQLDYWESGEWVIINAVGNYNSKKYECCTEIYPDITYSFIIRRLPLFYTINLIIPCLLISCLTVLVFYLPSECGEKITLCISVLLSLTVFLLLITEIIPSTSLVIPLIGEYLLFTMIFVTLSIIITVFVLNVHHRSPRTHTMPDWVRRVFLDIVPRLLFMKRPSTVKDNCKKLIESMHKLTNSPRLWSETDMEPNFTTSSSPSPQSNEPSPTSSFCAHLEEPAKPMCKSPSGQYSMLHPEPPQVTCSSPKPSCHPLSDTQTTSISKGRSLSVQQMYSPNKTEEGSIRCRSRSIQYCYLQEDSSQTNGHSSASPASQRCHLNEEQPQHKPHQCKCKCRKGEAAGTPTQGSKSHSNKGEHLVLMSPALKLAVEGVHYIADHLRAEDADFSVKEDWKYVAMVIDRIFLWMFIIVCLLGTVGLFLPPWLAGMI

Work on `O=[N+]([O-])/C=C1\NCCN1Cc1ccc(Cl)nc1` yielded a Ki [1] of 0.0017 µM, a Ki [2] of 0.06 µM and a Ki [3] of 0.00012 µM.
With `C/C(=N\C#N)N(C)Cc1ccc(Cl)nc1` the Ki [1] was 0.032 µM, the Ki [2] was 0.68 µM and the Ki [4] was 1.2 µM. It also gave a Ki [3] of 0.0072 µM.
Compound `Clc1ccc(C2CC3CCC2N3)cn1` (racemic) [EPIBATIDINE] has a Ki [1] of 0.001 µM, a Ki [4] of 0.0003 µM and a Ki [3] of 0.29 µM.
Work on `N=C1SCCN1Cc1ccc(Cl)nc1` [DESCYANOTHIACLOPRID] yielded a Ki [1] of 0.0006 µM, a Ki [2] of 0.0012 µM and a Ki [4] of 0.016 µM. It also gave a Ki [3] of 0.13 µM.
Work on `N=C1NCCN1Cc1ccc(Cl)nc1` [DESNITROIMIDACLOPRID] yielded a Ki [1] of 0.015 µM, a Ki [2] of 0.0022 µM and a Ki [4] of 0.018 µM. For the same compound, the Ki [3] was 1 µM.
For `O=[N+]([O-])NC1=NCCN1Cc1ccc(Cl)nc1` [IMIDACLOPRID], the Ki [1] was 0.019 µM, the Ki [2] was 0.97 µM and the Ki [3] was 0.003 µM.
With `CN1CCC[C@H]1c1cccnc1` [NICOTINE] the Ki [1] was 0.03 µM, the Ki [2] was 0.0019 µM and the Ki [3] was 2.7 µM.
`N#C/N=C1\SCCN1Cc1ccc(Cl)nc1` [THIACLOPRID] was tested, and the Ki [1] was 0.0039 µM, the Ki [2] was 0.24 µM and the Ki [3] was 0.0012 µM.

Reference: ChEMBL document CHEMBL3045824, “Unique neonicotinoid binding conformations conferring selective receptor interactions” (J Agric Food Chem, 2011)
